Starred links: 1 amine or outer side, 2 acyl side, 3 side chain; linkers in the order of their positions; H or OH if unused. Non-standard residues stand in square brackets, D forms with d. Residues, ends and D or L forms follow the SMILES beside them. X1 = O=C([C@H](Cc1ccc(O)cc1)N(c1ccc2ccccc2n1)[*:1])[*:2]
What was measured:
[1] = molecular target: μ-opioid receptor (MOR) (Homo sapiens, UniProt P35372); test: [35S]GTPγS binding assay, MOR agonist activity; type: biochemical; conditions: for Emax: [35S]GTPγS binding rate
μ-opioid receptor (MOR), sequence (P35372 whole entry): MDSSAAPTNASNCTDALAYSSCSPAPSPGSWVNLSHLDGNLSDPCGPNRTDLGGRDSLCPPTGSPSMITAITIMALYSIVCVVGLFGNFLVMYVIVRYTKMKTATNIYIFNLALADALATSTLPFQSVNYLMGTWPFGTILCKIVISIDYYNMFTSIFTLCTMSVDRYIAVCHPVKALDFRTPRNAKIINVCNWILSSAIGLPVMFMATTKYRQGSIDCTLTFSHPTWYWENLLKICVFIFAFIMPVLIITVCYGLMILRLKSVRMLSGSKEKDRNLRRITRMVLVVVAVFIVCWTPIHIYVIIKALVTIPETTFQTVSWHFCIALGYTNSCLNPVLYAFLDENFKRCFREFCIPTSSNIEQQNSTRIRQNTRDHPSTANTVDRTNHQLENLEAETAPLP
Method: Protein concentration was detected using BCA protein concentration assay kit: 10 μl of protein standard was prepared into a final concentration of 0.5 mg/ml. 0, 1, 2, 4, 8, 12, 16, or 20 μl of BSA standard protein was taken and added together with the sample to be tested to a 96-well plate, and supplemented to 20 μl with the solution for diluting the standard. 200 μl of BCA working solution was added to each well and placed at 37° C. for 30 min. The absorbance at A562 wavelength was measured with a microplate reader. The protein concentration was calculated based on the standard curve.
The prepared membrane receptor was diluted to the required concentration with the reaction buffer (R.B), and the samples were added as shown in Table 2 (unit: μl).
The reaction tube was incubated in a 27° C. water bath for 1 hour, and the mixture was filtered through a glass fiber membrane under reduced pressure and liquid scintillation counting was performed. The following equation was used to perform calculation:
[^35S] GTPγS binding rate=100×(cpmsample−cpmnon-specific)/(cpmbasal−cpmnon-specific)

[2] = type: in vitro ADME; conditions: 1 mg/ml in pig liver slurry, 0.25-3 hour, FIG. 3
Method: 5 g of a fresh pig liver from which adhering fat and connective tissue were removed, was washed with a cold saline, absorbed water on its surface with a filter paper and weighed. The liver was cut into pieces with a scissors, added with an appropriate amount of a PBS buffer, and homogenized with a homogenizer at a frequency of 30/s for 4 minutes to prepare 20 ml of a slurry. The compound 2-40 to be tested (at a final concentration of 1 mg/ml with a co-solvent (1% DMSO)) was added into the 20 ml pig liver slurry, stirred thoroughly and left stand. 1 ml of samples were withdrawn twice at six time points: 0.25 hour, 0.5 hour, 1 hour, 1.5 hour, 2 hour and 3 hour, respectively, and added with methanol (500 μl) to stop the reaction. After centrifugation (1000 rpm, 6 minutes), the supernatant was separated and extracted twice with 750 μl of water-saturated n-butanol. The extracted samples were then analyzed by HPLC. The HPLC analysis was performed on an Agilent Zorbax SB-C18 column (5 μm, 4.6×250 mm) with a flow rate of […] at 25° C. The gradient condition used was from 50% A (MeOH) and 50% B (H2O+0.2% CH3COOH) to 95% A and 5% B in 16 minutes. The absorbance values at 210, 254 and 280 nm were collected using a UV-DAD detector.

[3] = system: Hepatocarcinoma SMMC-7721 cells; test: Cell proliferation inhibition assay (SRB method), SMMC-7721; type: cell-based; conditions: for IC50: SMMC-7721, 72 hours, SRB
Method: (§1) Hepatocarcinoma BEL-7402 and SMMC-7721 cells were purchased from American Standard Bacterial Bank. All cell lines were stored in a cell culture medium containing 10% fetal bovine serum in a humid environment at 37° C. and 5% CO2. The two kinds of hepatocarcinoma cells were seeded in 96-well plates overnight. The assay were performed using a final highest concentration of 100 μM, 10-fold dilution, 6 gradients and 3 duplicates, and the cells were treated for 72 hours and three independent repeated experiments were carried out. The antiproliferative activity of the compound was determined by Sulforhodamine B (SRB) method. Then the absorbance OD value at a wavelength of 510 nm was measured on a Synergy H4 Hybrid reader (BioTek, Winooski, Vt., USA) by using Gen5.0 software (BioTek). The IC50 value was calculated using the software Prism 5 (GraphPad Software, Inc).

[4] = system: Hepatocarcinoma BEL-7402 cells; test: Cell proliferation inhibition assay (SRB method), BEL-7402; type: cell-based; conditions: for IC50: BEL-7402, 72 hours, SRB
Method: as §1

[5] = molecular target: tankyrase (TNKS); conditions: read-out: IC50 (TNKS inhibitor); cited from earlier work

C[C@@H](NC(=O)[C@@H](N)Cc1ccc(O)cc1)C(=O)N[C@@H](Cc1ccccc1)C(=O)NCC(=O)N[C@@H](Cc1ccc(O)cc1)C(=O)N1CCC[C@H]1C(=O)N[C@@H](CO)C(N)=O [derorphin, reference compound]
Emax ([1]; mean ± sem): 219 ± 7.1%

C=C(/C=C\C(=C)NC(=O)[C@H](CCCNC(N)=O)NC(=O)[C@@H](Nc1cc(C)c2ccc(-c3ccccc3F)cc2n1)C(C)C)CO [Compound 2-40]
metabolic stability in liver tissue [2]: good metabolic stability

COC(=O)[C@H](CC(C)C)NC(=O)[C@H](CO)NC(=O)[C@@H](N)Cc1ccc(O)cc1 [YSL-M, tyroserleucide methyl ester, reference compound] (H-Tyr-Ser-Leu-OMe; N-terminus assumed)
IC50 [3]: > 100 µM | IC50 [4]: > 100 µM

Cc1cc(=O)[nH]c2cc(-c3ccccc3F)ccc12 [7-(2-fluorophenyl)-4-methylquinoline-2(1H)-one]
IC50 [5]: 0.052 µM

C[C@H](NC(=O)[C@H](Cc1ccc(O)cc1)Nc1ccc2ccccc2n1)C(=O)N[C@H](Cc1ccccc1)C(=O)NCC(=O)N[C@H](Cc1ccc(O)cc1)C(=O)N1CCC[C@H]1C(=O)N[C@@H](CO)C(N)=O [Compound 2-38] (H-[X1]A[dF]G[dY]PS-NH2)
MOR agonist activity compared with derorphin [1]: activity comparable to that of derorphin | EC50 ([1]; mean ± sem): 0.224 ± 0.0251 µM | Emax ([1]; mean ± sem): 203 ± 5.1%

CC(C)C[C@H](NC(=O)[C@H](CO)NC(=O)[C@@H](N)Cc1ccc(O)cc1)C(=O)O [YSL, Tyroserleutide, reference compound] (H-Tyr-Ser-Leu-OH; N-terminus and C-terminus assumed)
IC50 [3]: > 100 µM | IC50 [4]: > 100 µM

COC(=O)[C@H](CC(C)C)NC(=O)[C@H](CO)NC(=O)[C@H](Cc1ccc(O)cc1)Nc1ccc2ccccc2n1 [Compound 2-39]
cytotoxicity compared with unmodified drugs ([3]; SMMC-7721): better cytotoxicities than the unmodified drugs | IC50 [3]: 63.3 ± 6.35 µM | cytotoxicity compared with unmodified drugs ([4]; BEL-7402): better cytotoxicities than the unmodified drugs | IC50 [4]: 52.6 ± 2.47 µM
